Test results as given in patent publication US9629816B2, “Small molecule therapeutic compounds targeting thioesterase deficiency disorders and methods of using the same” (The United States of America, as represented by the …, priority 2011, dated 2017).
“And” between values parts separate entries of the source, which are not always exact repeats. Identical values can stand only once.

Columns and labels:
PPT1-KO mice [1] = test: Autofluorescence of brain tissues of PPT1-KO mice; type: in vivo, mouse; conditions: vs untreated PPT1-KO mice (FIG. 13)
Method: All animal experiments were performed according to the institutional guidelines after an animal protocol was approved by the Animal Care and Use Committee of the National Institute of Child Health and Development, National Institutes of Health. PPT1-KO mice (a gift from Dr. S. L. Hofmann, University of Texas Southwestern Medical Center at Dallas, Dallas, Tex., USA) were generated by targeted disruption of the last exon in the PPT1 gene in embryonic stem (ES) cells. These mice were subsequently backcrossed for 10 generations with wild type C57BL/6 mice in order to obtain congenic C57 background and a breeding pair was provided by Dr. Mark Sands to start the inventors' colony. Animals were housed and maintained in a pathogen-free facility. Three-month old PPT-KO mice were given NtBuHA in their drinking water (1 mM NtBuHA and 1 mM NaCl).
Accumulation of intracellular autofluorescent lipopigment material in the brain and other tissues is a characteristic pathological finding in INCL patients and in PPT1-KO mice. Given this, it was hypothesized that NtBuHA-mediated depletion of GRODs may also reduce the intensity of autofluorescence in brain tissues of NtBuHA-treated PPT1-KO mice. Accordingly, a comparison of the autofluorescence of brain tissues from NtBuHA-treated PPT 1-KO mice, untreated PPT 1-KO mice, and wild-type litter-mates was performed.

PPT1-KO mice [2] = test: Blood methemoglobin level in PPT1-KO mice; type: in vivo, mouse
Method: The ability of the HA-derivative NtBuHA to increase methemoglobin levels was tested by placing PPT1-KO mice on a diet containing NtBuHA. After three months on the diet, the level of methemoglobin in the animal's blood was measured.

PPT1-KO mice [3] = test: NeuN immunohistochemistry of cortical tissue sections of PPT1-KO mice; type: in vivo, mouse; conditions: brain sections vs untreated PPT1-KO mice (FIG. 18)
Method: The NtBuHA treated and untreated mouse brain tissues were fixed in 3.7% paraformaldehyde, embedded in paraffin and processed for histological analyses. Briefly, after being treated with xylene and then successively with different concentrations of ethanol in phosphate buffered saline (PBS) (100% to 0%), tissue sections were blocked with 5% BSA in PBS. Sections were then probed overnight with anti-synaptophysin (Abcam) and anti-GFAP followed by incubation with alexa fluor 594 conjugated anti-rabbit and anti-mouse secondary antibodies (Invitrogen). Sections were mounted with DAPI containing mounting medium and imaged using Zeiss LSM 510 Inverted Meta confocal microscope (Carl Zeiss).
(§1) It has been reported that postmortem brain tissues from INCL patients as well as those from PPT1-KO mice manifest high levels of oxidative stress, which induces neuronal apoptosis contributing to neuropathology. […] Accordingly, a terminal deoxynucleotidyl transferase dUTP nick end labeling (TUNEL) assay was performed using cortical tissue sections from wild-type, untreated PPT1-KO and NtBuHA-treated PPT1-KO mice to determine the level of apoptosis. […] Quantitative analysis of the NeuN-positive cells in brain tissues from wild-type, untreated and NtBuHA-treated PPT1-KO mice (FIG. 18D) confirmed the visual assessment.

[4] = Cleavage of thioester linkage in [14C]palmitoyl-CoA, release of free [14C]palmitate (TLC, autoradiography); type: biochemical; conditions: varying concentrations; various incubation times; [14C]palmitate production
Method: It has been reported that thioester linkages in s-acylated proteins are labile, and that compounds having nucleophilic properties are able to disrupt such linkages. Thus, the ability of derivatives of hydroxylamine to disrupt thioester linkages in s-acylated proteins was tested. Twelve HA-derivatives, described in Table 1, were screened for their ability to cleave thioester linkage in [^14C]palmitoyl˜CoA (a model thioester substrate of PPT1), mediating the release of free [^14C]palmitic acid, a process depicted in FIG. 2. […] [^14C]-palmitoyl-CoA was incubated for 1 hour with each of the HA derivatives and the reaction mixture was resolved by thin layer chromatography (TLC) followed by autoradiography. The free [^14C]-palmitate bands were visible and quantitated by densitometric analysis of the bands.

PPT1-KO mice [5] = test: TUNEL assay of cortical tissue sections of PPT1-KO mice; type: in vivo, mouse; conditions: cortical tissue vs untreated PPT1-KO mice (FIG. 16)
Method: It has been reported that postmortem brain tissues from INCL patients as well as those from PPT1-KO mice manifest high levels of oxidative stress, which induces neuronal apoptosis contributing to neuropathology. […] Accordingly, a terminal deoxynucleotidyl transferase dUTP nick end labeling (TUNEL) assay was performed using cortical tissue sections from wild-type, untreated PPT1-KO and NtBuHA-treated PPT1-KO mice to determine the level of apoptosis. […] Since elevated levels of apoptosis in the brain of PPT1-KO mice and INCL patients mediate progressive decline in number of cortical neurons, the inventors also sought to further confirm whether decreased apoptosis in NtBuHA-treated PPT1-KO mice prevented neuronal loss. Accordingly, an immunohistochemical analyses of cortical tissue sections from wild-type, untreated-PPT1-KO, and NtBuHA-treated PPT1-KO mice was performed using antibodies against a neuronal marker, NeuN. […] Quantitative analysis of the NeuN-positive cells in brain tissues from wild-type, untreated and NtBuHA-treated PPT1-KO mice (FIG. 18D) confirmed the visual assessment.

PPT1-KO mice [6] = test: Western blot of caspase-9 and cleaved PARP-1 in cortical tissue homogenates of PPT1-KO mice; type: in vivo, mouse; conditions: cortical tissue homogenates (FIG. 17)
Method: Western blot analysis was performed as using standard methodology. Briefly 30 μg of protein was resolved in 4-12% Bis tris gel (Invitrogen) and electro-transferred in PVDF membrane. The membranes were blocked with 5% non fat dried milk for 1 hour at room temperature and were then probed overnight with primary antibody at 4 C. After washing the blots were incubated with horseradish peroxidase conjugated secondary antibody (Santacruz Biotechnology) for 1 hour at room temperature and developed using enhanced chemiluminescences detection reagents (Pierce). Primary antibodies used in this study were caspase-3, caspase-9 (cell signaling) SOD2, catalase, β-Actin (US Biologicals).
as §1

INCL fibroblasts = test: TEM analysis of GRODs in cultured INCL fibroblasts; type: cell-based, human; conditions: 250 μM for 3 weeks vs untreated fibroblasts (FIG. 10)
Method: Transmission electron microsocopy (TEM) of INCL lymphoblasts and fibroblasts was performed. Briefly, cells were first treated with 250 μM NtBuHA for 3 weeks. Medium was replaced with fresh 250 μM of NtBuHA at every 72 hours. After treatment, cells were fixed with 2.5% glutaraldehyde in sodium phosphate buffer, washed three times with Millonig's phosphate buffer and stained with 2.5% uranyl acetate. Ultra-thin sections were then prepared using AO Reichert Ultracut ultramicrotome, stained with lead citrate and examined by using Zeiss EM10 CA.
Accordingly, untreated- and NtBuHA-treated cultured INCL lymphoblasts were analyzed using TEM.

For CC(C)(C)NO [NtBuHA, N-(tert-Butyl)hydroxylamine], the “autofluorescence of brain tissues” value (PPT1-KO mice [1]) was “markedly reduced autofluorescence”, the “% Methemoglobin” value (PPT1-KO mice [2]; individual NtBuHA-treated PPT1-KO mice, three months on diet, blood) was 0% and 0.5% and 0.7% and 0.6% and the “% Methemoglobin, Mean” value (PPT1-KO mice [2]; mean of 4 NtBuHA-treated PPT1-KO mice, three months on diet, blood) was 0.45%. The “effect on methemoglobin levels” value (PPT1-KO mice [2]; treatment up to three months) was “does not increase methemoglobin levels”, the NeuN-positive cells (PPT1-KO mice [3]) was “modestly higher level of NeuN-positive cells” and the “dose- and time-dependence of thioester linkage cleavage in [14C]palmitoyl-CoA” value [4] was “cleaved the thioester linkage in a dose-dependent and time-dependent manner”. The TUNEL-positive apoptotic cells (PPT1-KO mice [5]) was “appreciably lower levels of TUNEL-positive apoptotic cells”, the “caspase-9 and cleaved PARP-1 level” value (PPT1-KO mice [6]) was “marked reduction in caspase-9 and cleaved PARP-1 level” and the “GRODs in INCL fibroblasts” value (INCL fibroblasts) was “significantly lower number of GRODs with markedly reduced size and density”.
